Holding throughout (assay type): cell-based
In assay [1] the target is T1, P2X purinoceptor 1 (Homo sapiens) (UniProt P51575).
T1 sequence (whole entry): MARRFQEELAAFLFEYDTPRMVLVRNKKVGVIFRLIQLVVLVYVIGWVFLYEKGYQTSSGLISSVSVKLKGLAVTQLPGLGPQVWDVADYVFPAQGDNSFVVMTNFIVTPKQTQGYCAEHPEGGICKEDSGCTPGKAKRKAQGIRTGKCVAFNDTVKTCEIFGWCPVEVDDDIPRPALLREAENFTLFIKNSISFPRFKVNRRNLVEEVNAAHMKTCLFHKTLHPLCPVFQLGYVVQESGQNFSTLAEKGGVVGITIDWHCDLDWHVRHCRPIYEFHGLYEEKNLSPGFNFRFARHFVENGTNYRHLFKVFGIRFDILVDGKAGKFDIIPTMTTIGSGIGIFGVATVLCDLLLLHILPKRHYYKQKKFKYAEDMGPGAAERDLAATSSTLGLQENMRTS
Description: Antagonist activity at non-desensitizing human P2X1 receptor ( P2X2/P2X1 chimera) expressed in human 1321N1 cells assessed as inhibition of ATP-induced calcium influx at 10 uM pre-incubated for 30 mins before ATP stimulation by FLIPR assay relative to control.

Assay [2] deals with P2X purinoceptor 1 (Homo sapiens, UniProt P51575). Description: Antagonist activity at non-desensitizing human P2X1 receptor ( P2X2/P2X1 chimera) expressed in human 1321N1 cells assessed as inhibition of ATP-induced calcium influx pre-incubated for 30 mins before ATP stimulation by FLIPR assay relative to control.
Assay [3] concerns the target T2, P2X purinoceptor 4 (Homo sapiens, UniProt Q99571).
T2 sequence (Q99571 whole entry): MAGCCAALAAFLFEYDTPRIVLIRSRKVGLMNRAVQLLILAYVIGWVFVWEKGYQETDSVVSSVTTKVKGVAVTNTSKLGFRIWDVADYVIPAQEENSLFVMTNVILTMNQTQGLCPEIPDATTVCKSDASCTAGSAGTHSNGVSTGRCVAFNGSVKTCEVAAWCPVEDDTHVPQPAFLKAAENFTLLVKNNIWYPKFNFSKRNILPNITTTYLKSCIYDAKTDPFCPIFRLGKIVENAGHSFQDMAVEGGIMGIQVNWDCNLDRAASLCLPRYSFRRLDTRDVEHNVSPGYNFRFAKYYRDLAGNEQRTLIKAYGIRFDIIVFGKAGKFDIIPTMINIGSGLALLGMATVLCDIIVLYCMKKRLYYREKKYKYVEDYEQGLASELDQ
Description: Antagonist activity at human P2X4 receptor expressed in human 1321N1 cells assessed as inhibition of ATP-induced cytosolic calcium influx preincubated for 30 mins followed by ATP addition by Fluo-4 AM dye-based fluorescence assay.

Assay [4] concerns the target T3, P2X purinoceptor 2 (Homo sapiens, UniProt Q9UBL9).
T3 sequence (Q9UBL9 whole entry): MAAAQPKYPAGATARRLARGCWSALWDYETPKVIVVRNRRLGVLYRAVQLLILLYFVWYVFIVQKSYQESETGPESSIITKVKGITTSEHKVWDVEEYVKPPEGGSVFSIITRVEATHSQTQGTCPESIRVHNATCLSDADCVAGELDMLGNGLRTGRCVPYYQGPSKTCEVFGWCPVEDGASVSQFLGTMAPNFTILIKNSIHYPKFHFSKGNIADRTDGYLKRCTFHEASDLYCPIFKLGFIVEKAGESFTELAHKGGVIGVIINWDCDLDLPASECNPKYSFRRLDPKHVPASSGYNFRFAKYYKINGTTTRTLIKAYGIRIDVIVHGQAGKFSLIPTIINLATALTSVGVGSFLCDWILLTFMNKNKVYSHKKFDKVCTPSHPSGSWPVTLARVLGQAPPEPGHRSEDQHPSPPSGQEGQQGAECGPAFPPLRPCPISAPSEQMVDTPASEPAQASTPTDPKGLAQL
Nature of the assay: Antagonist activity at human P2X2 receptor expressed in human 1321N1 cells assessed as inhibition of ATP-induced cytosolic calcium influx preincubated for 30 mins followed by ATP addition by Fluo-4 AM dye-based fluorescence assay.

The target of assay [5] is T4, P2X purinoceptor 7 (Homo sapiens, UniProt Q99572).
T4 sequence (Q99572 whole entry): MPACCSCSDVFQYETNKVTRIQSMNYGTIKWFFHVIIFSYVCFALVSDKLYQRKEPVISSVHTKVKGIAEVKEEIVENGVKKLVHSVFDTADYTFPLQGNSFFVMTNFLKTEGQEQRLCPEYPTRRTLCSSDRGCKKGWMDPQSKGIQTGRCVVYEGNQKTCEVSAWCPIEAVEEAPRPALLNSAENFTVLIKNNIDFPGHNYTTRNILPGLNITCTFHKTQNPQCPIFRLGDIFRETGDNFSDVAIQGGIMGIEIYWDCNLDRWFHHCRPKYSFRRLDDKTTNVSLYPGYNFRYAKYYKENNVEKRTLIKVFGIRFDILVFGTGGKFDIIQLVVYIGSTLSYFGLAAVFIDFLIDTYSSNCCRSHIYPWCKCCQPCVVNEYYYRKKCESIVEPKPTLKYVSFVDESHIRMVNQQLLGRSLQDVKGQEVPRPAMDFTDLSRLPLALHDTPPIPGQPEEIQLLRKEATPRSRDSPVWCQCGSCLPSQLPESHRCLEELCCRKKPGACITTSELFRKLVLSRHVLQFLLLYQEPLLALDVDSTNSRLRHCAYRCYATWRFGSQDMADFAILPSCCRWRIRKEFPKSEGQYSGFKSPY
Nature of the assay: Antagonist activity at human P2X7 receptor expressed in human 1321N1 cells assessed as inhibition of ATP-induced cytosolic calcium influx preincubated for 30 mins followed by ATP addition by Fluo-4 AM dye-based fluorescence assay.

`O=C(Nc1ccc([N+](=O)[O-])cc1)c1cc(Cl)ccc1O`: in assay [1], the inhibition amounted to 43%.
`N#Cc1ccc(NC(=O)c2cc(Cl)ccc2O)cc1`: the inhibition in assay [1] amounted to 38%. The concentration for half-maximal inhibition (IC50) in assay [2] is more than 10000 nM.
Consider `O=C(Nc1cc(C(F)(F)F)cc(C(F)(F)F)c1)c1cnccc1O`, for which the inhibition in assay [1] worked out at 31%. The IC50 in assay [2] is more than 10000 nM.
Consider `O=C(NCc1cc(C(F)(F)F)cc(C(F)(F)F)c1)c1cc(Cl)ccc1O`, for which, in assay [1], the inhibition came to 111%. Further, the IC50 in assay [2] turned out to be 1530 nM.
With `Nc1ccccc1C(=O)Nc1cc(C(F)(F)F)cc(C(F)(F)F)c1`, the inhibition in assay [1] came out at 67%. In addition, in assay [2], the 50% inhibitory concentration (IC50) was determined as 9930 nM.
For `O=C(Nc1cc(C(F)(F)F)cc(C(F)(F)F)c1)c1ccncc1O`, in assay [1], the inhibition turned out to be 60%. For the same compound, the half-inhibitory concentration (IC50) in assay [2] came to 5250 nM.
On the same counts, the results for `Cc1cc(C)cc(NC(=O)c2cc(Cl)ccc2O)c1` are 64% and 323 nM.
For `O=C(Nc1cc([N+](=O)[O-])cc([N+](=O)[O-])c1)c1cc(Cl)ccc1O`, the inhibition in assay [1] is 62%. Besides, the concentration for half-maximal inhibition (IC50) in assay [2] was determined as 4350 nM.
Regarding `COc1ccc(O)c(C(=O)Nc2cc(C(F)(F)F)cc(C(F)(F)F)c2)c1`, the inhibition in assay [1] was found to be 91%. Besides, in assay [2], the IC50 came to 755 nM.
Take `CN(C(=O)c1cc(Cl)ccc1O)c1cc(C(F)(F)F)cc(C(F)(F)F)c1`: the inhibition in assay [1] amounted to 88%. Also, the half-inhibitory concentration (IC50) in assay [2] came to 4060 nM.
As for `O=C(Nc1cc(C(F)(F)F)cc(C(F)(F)F)c1)c1ccc2ccccc2c1O`, the concentration for half-maximal inhibition (IC50) was 729 nM in assay [3], more than 10000 nM in assay [4], 341 nM in assay [2] and 797 nM in assay [5].
Consider `O=C(Nc1cccc(C(F)(F)F)c1)c1ccccc1O` [SALFLUVERINE], for which the inhibition in assay [1] was 75%. Moreover, the IC50 in assay [2] came out at 1300 nM.
With `O=C(Nc1cc(Cl)ccc1O)c1cc(C(F)(F)F)cc(C(F)(F)F)c1`, in assay [1], the inhibition stood at 48%. Further, the concentration for half-maximal inhibition (IC50) in assay [2] was not below 10000 nM.
Consider `O=C(Nc1cc(C(F)(F)F)cc(C(F)(F)F)c1)c1cc([N+](=O)[O-])ccc1O`, for which the inhibition in assay [1] was 99%. Moreover, in assay [2], the IC50 came out at 2530 nM.
For the compound `O=C(Nc1cc(C(F)(F)F)cc(C(F)(F)F)c1)c1ccccc1[N+](=O)[O-]`, the inhibition in assay [1] is 61%. For the same compound, in assay [2], the IC50 worked out at 8600 nM.
In the case of `O=C(Nc1ccc(Cl)cc1)c1cc(Cl)ccc1O`, the inhibition in assay [1] came to 55%. Besides, the IC50 in assay [2] was 199 nM.
In the case of `CC(C)(C)c1cccc(NC(=O)c2cc(Cl)ccc2O)c1`, the inhibition in assay [1] was 100%. Also, the 50% inhibitory concentration (IC50) in assay [2] was 567 nM.
With `O=C(CNc1cc(C(F)(F)F)cc(C(F)(F)F)c1)c1cc(Cl)ccc1O`, in assay [1], the inhibition came to 104%. The half-inhibitory concentration (IC50) in assay [2] turned out to be 1790 nM.
On to `O=C(Nc1cc(C(F)(F)F)cc(C(F)(F)F)c1)c1cc(O)ccc1O`, for which the inhibition in assay [1] stood at 109%. In assay [2], the IC50 turned out to be 3410 nM.
Consider `C#Cc1cccc(NC(=O)c2cc(Cl)ccc2O)c1`, for which the inhibition in assay [1] was 60%. Moreover, the half-inhibitory concentration (IC50) in assay [2] is 1340 nM.
On to `O=C(Nc1cc(C(F)(F)F)cc(C(F)(F)F)c1)c1cccc(O)c1`, for which the inhibition in assay [1] was found to be 100%. Further, the IC50 in assay [2] turned out to be 4910 nM.
For `O=C(Nc1cc(C(F)(F)F)cc(C(F)(F)F)c1)c1cc(F)ccc1O`, the inhibition in assay [1] is 96%. The IC50 in assay [2] amounted to 1660 nM.
`Oc1ccc(Cl)cc1CNc1cc(C(F)(F)F)cc(C(F)(F)F)c1`: the inhibition in assay [1] was found to be 122%. Further, the IC50 in assay [2] turned out to be 3820 nM.
As for `NS(=O)(=O)c1cccc(NC(=O)c2ccccc2O)c1`, the inhibition in assay [1] was 21%. Also, the half-inhibitory concentration (IC50) in assay [2] was more than 10000 nM.
On to `O=C(Nc1cc(C(F)(F)F)cc(C(F)(F)F)c1)c1cccc(Cl)c1`, for which, in assay [1], the inhibition came to 82%. Also, the IC50 in assay [2] worked out at 139000 nM.
On the same counts, the results for `O=C(Nc1cc(C(F)(F)F)cc(C(F)(F)F)c1)c1cccnc1O` are 9% and more than 10000 nM.
In the case of `O=C(Nc1cc(C(F)(F)F)cc(C(F)(F)F)c1)c1c(O)cccc1O`, in assay [1], the inhibition was 75%. Also, in assay [2], the concentration for half-maximal inhibition (IC50) was found to be 8000 nM.
In the same order, the values of `O=C(Nc1cc(O)cc(O)c1)c1cc(Cl)ccc1O` are 4% and more than 10000 nM.
On the same counts, the results for `Cc1ccc(O)c(C(=O)Nc2cc(C(F)(F)F)cc(C(F)(F)F)c2)c1` are 91% and 236 nM.
Turning to `O=C(Nc1cc(C(F)(F)F)cc(C(F)(F)F)c1)c1ccccc1CO`, the inhibition in assay [1] worked out at 37%. For the same compound, in assay [2], the IC50 was more than 10000 nM.
As for `Cc1cccc(C(=O)Nc2cc(C(F)(F)F)cc(C(F)(F)F)c2)c1O`, in assay [1], the inhibition came out at 102%. In addition, the 50% inhibitory concentration (IC50) in assay [2] was 655 nM.
On the same counts, the results for `O=C(Nc1ccc2cc[nH]c2c1)c1ccccc1O` are 11% and more than 10000 nM.
Consider `O=C(Nc1cc(C(F)(F)F)cc(C(F)(F)F)c1)c1cccc(C(F)(F)F)c1`, for which, in assay [1], the inhibition came to 63%. Further, in assay [2], the IC50 is 7180 nM.
Consider `O=C(Nc1ccccc1C(F)(F)F)c1cc(Cl)ccc1O`, for which, in assay [1], the inhibition turned out to be 28%. For the same compound, the IC50 in assay [2] is more than 10000 nM.
In the same order, the values of `O=C(Nc1cc(C(F)(F)F)cc(C(F)(F)F)c1)c1ccccc1Cl` are 100% and 539000 nM.
On to `O=C(Nc1ccc(F)cc1)c1cc(Cl)ccc1O`, for which the inhibition in assay [1] amounted to 93%. In addition, in assay [2], the IC50 was 907 nM.
Regarding `O=C(Nc1ccc2ncccc2c1)c1ccccc1O`, the inhibition in assay [1] amounted to 28%. Besides, in assay [2], the IC50 is more than 10000 nM.
Take `COc1cc(NC(=O)c2cc(Cl)ccc2O)cc(OC)c1`: in assay [1], the inhibition came out at 80%. The IC50 in assay [2] stood at 915 nM.
`O=C(Nc1cc(C(F)(F)F)cc(C(F)(F)F)c1)c1cccc([N+](=O)[O-])c1O`: the inhibition in assay [1] is 112%. Besides, the IC50 in assay [2] was found to be 869 nM.
Turning to `O=C(Nc1cccnc1)c1ccccc1O`, the inhibition in assay [1] came to 3%. In addition, the IC50 in assay [2] was more than 10000 nM.
As to `O=C(Nc1cccc([N+](=O)[O-])c1)c1cc(Cl)ccc1O`, the inhibition in assay [1] was found to be 65%. Moreover, in assay [2], the 50% inhibitory concentration (IC50) is 172 nM.
`O=C(Nc1cccc(S(=O)(=O)C(F)(F)F)c1)c1cc(Cl)ccc1O`: the inhibition in assay [1] was determined as 83%. In assay [2], the IC50 is 335 nM.
In the same order, the values of `CN1CCN(C(=O)Nc2cc(C(F)(F)F)cc(C(F)(F)F)c2)C1=O` are 0% and more than 10000 nM.

A word on the inhibition: it is the change of the read-out against control, counted positive when it falls. The IC50 is the concentration needed to halve the response being measured.

Source of the values: ChEMBL document CHEMBL4613266, “Discovery and Structure Relationships of Salicylanilide Derivatives as Potent, Non-acidic P2X1 Receptor Antagonists” (J Med Chem, 2020).
